Assay results reported in US20250268921A1, “OPTHALMIC FORMULATIONS AND USES THEREOF” (TelomEYE Pharmaceutical Corporation, priority 2018, published 2025).

Tests used:
[1] = test system: corneal endothelial cells; assay: Corneal endothelial cell density (CD) by specular microscopy, rabbits treated 6 months; type: in vivo, rabbit
Experimental: All experiments were designed and carried out in a randomized, double blind manner using placebos. Rabbits were housed for one week prior to the study, fed on standard laboratory food and allowed free access to water in a room at standard temperature and humidity conditions in a 12-h light/12-h dark cycle.
All analyses were carried out using GraphPad Prism 5.0 (GraphPad Software, San Diego, CA, USA). Differences were considered to be significant at a level of P: : : : 0.001.

telomerase = molecular target: T1, telomerase (Homo sapiens, UniProt O14746); assay: TeloTAGGG Telomerase PCR ELISA assay in HCEC-B4G12; type: cell-based; conditions: for % Telomerase Activity ± SD: 30 hours
T1 construct: endogenous in cells; host or cells: HCEC-B4G12 (DSMZ ACC 647)
Experimental: TeloTAGGG™ Telomerase PCR ELISA assay was performed as described by manufacturer (Sigma-Aldrich).

corneal endothelium = assay: Histopathology of corneal layer, treated rabbits; type: in vivo, rabbit
Experimental: Eye tissue was fixed with 4% formaldehyde and embedded in paraffin for the histopathological assessment and processed according to routine light microscope tissue processing methods. 5 μm tissue sections stained with Hematoxylin-Eosin (H&E) were examined and photographed by Leica image analyzing system (Leica, Germany). All specimens were evaluated individually by three histologists who were blinded to the drug type and the treatment times. Histopathology was also performed to evaluate the corneal opacity, neovascularization, inflammatory cell density, vessel size and edema. Moreover, lens structure, scleral, choroidal and macular changes were analyzed by histopathology.

[2] = test system: telomere length in corneal endothelial cells; assay: Telomere length (TAT analysis) in corneal endothelial cells from treated rabbits; type: in vivo, rabbit; conditions: 6 months
Experimental: Samples were received in paraffin.
The sample is filtered to remove collagen residues. Telomere lengths were assessed using Life Length's.
All measurements were performed in quintuplicate.

[3] = Rabbit ocular pharmacokinetic model; type: in vivo; conditions: zero hour, after 5 days of eye drops, without last administration
Experimental: At the end of the fifth day, blood, tear, cornea, anterior chamber fluid, iris and lens tissues were collected at 30, 60, 120, 240 and 480 minutes following the last administration of 4 μg/50 μl. […] According to the results of the drug analysis at the 30th minute, the highest drug concentrations of 215.56 ng in the corneal tissue, 4 ng in the anterior chamber and 14.12 ng in the iris were detected individually, proving that the drug passes into the corneal tissue after application to the corneal surface and reaches the intraocular tissues.

T1 sequence (O14746 whole entry): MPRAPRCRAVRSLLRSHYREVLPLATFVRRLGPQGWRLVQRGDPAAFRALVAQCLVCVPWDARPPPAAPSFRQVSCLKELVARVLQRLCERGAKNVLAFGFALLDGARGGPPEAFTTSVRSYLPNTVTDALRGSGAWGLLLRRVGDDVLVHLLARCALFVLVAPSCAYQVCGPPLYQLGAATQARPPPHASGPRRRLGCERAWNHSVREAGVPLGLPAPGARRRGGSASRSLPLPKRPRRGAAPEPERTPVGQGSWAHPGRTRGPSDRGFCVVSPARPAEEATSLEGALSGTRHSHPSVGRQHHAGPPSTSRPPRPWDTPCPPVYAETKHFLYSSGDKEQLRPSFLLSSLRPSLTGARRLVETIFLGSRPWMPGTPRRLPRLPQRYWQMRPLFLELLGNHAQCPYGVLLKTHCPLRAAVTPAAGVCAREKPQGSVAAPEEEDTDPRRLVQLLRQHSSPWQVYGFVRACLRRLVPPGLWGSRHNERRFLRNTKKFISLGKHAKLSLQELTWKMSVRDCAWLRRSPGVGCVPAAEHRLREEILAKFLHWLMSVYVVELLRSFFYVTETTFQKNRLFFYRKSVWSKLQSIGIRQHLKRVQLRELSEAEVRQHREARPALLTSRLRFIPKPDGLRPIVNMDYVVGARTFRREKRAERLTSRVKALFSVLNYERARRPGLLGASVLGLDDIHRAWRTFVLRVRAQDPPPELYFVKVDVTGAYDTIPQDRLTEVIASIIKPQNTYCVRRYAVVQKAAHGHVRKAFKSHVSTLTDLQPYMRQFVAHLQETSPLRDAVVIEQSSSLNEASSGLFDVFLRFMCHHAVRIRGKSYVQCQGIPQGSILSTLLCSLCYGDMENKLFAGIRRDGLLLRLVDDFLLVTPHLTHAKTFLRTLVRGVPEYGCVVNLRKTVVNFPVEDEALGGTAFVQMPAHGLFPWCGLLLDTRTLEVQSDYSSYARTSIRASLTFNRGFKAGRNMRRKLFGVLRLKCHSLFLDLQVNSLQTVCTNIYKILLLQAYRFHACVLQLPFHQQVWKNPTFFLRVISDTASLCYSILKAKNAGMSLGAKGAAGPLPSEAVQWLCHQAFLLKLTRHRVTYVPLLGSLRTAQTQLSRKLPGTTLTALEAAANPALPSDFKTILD

Q: For `CC(C)(O)[C@@H]1CC[C@](C)([C@H]2[C@@H](O)C[C@@]3(C)[C@@H]4C[C@H](O)[C@H]5C(C)(C)[C@@H](O)CC[C@@]56C[C@@]46CC[C@]23C)O1` [cycloastragenol, Cycloastragenol], which “Cell Density (CD) of cornea layer endothelial cells” value (“Cell Density (CD)” below) ([1]; Group B, 25 ng/ml, month 0) is on record?
A: 2531.00

Q: And the “Cell Density (CD)” value ([1]; Group B, 25 ng/ml, month 1)?
A: 2612.38

Q: What about the “change in cell density versus month 0” value ([1]; Group B, 25 ng/ml, month 1) of the same compound?
A: 3%

Q: What about the “higher cell density than negative control group” value ([1]; Group B, 25 ng/ml, month 1) of the same compound?
A: about 4%

Q: What about the “higher cell density than placebo group” value ([1]; Group B, 25 ng/ml, month 1) of the same compound?
A: about 4%

Q: And the “Cell Density (CD)” value ([1]; Group B, 25 ng/ml, month 3)?
A: 2604.50

Q: What about the “change in cell density versus month 0” value ([1]; Group B, 25 ng/ml, month 3) of the same compound?
A: 3%

Q: What about the “higher cell density than negative control group” value ([1]; Group B, 25 ng/ml, month 3) of the same compound?
A: ~18%

Q: And the “higher cell density than placebo group” value ([1]; Group B, 25 ng/ml, month 3)?
A: ~18%

Q: What about the “Cell Density (CD)” value ([1]; Group B, 25 ng/ml, month 6) of the same compound?
A: 2545.88

Q: What about the “change in cell density versus month 0” value ([1]; Group B, 25 ng/ml, month 6) of the same compound?
A: 4%

Q: And the “higher cell density than negative control group” value ([1]; Group B, 25 ng/ml, month 6)?
A: ~19%

Q: What about the “higher cell density than placebo group” value ([1]; Group B, 25 ng/ml, month 6) of the same compound?
A: ~20%

Q: What about the “Cell Density (CD)” value ([1]; Group C, 100 ng/ml, month 0) of the same compound?
A: 2689.88

Q: And the “Cell Density (CD)” value ([1]; Group C, 100 ng/ml, month 1)?
A: 2741.13

Q: What about the “Cell Density (CD)” value ([1]; Group C, 100 ng/ml, month 3) of the same compound?
A: 2453.88

Q: What about the “Cell Density (CD)” value ([1]; Group C, 100 ng/ml, month 6) of the same compound?
A: 2472.38

Q: And the “Cell Density (CD)” value ([1]; Group D, 500 ng/ml, month 0)?
A: 2875.13

Q: What about the “Cell Density (CD)” value ([1]; Group D, 500 ng/ml, month 1) of the same compound?
A: 2835.38

Q: What about the “Cell Density (CD)” value ([1]; Group D, 500 ng/ml, month 3) of the same compound?
A: 2498.50

Q: And the “Cell Density (CD)” value ([1]; Group D, 500 ng/ml, month 6)?
A: 2488.88

Q: What about the “% Telomerase Activity ± SD” value (telomerase; 3.8 ng/ML) of the same compound?
A: 108 ± 5.27%

Q: What about the “% Telomerase Activity ± SD” value (telomerase; 7.8 ng/ML) of the same compound?
A: 114.42 ± 2.79%

Q: And the “% Telomerase Activity ± SD” value (telomerase; 15.6 ng/ML)?
A: 148.94 ± 49.54%

Q: What about the “% Telomerase Activity ± SD” value (telomerase; 125 ng/ML) of the same compound?
A: 43.14 ± 0.24%

Q: What about the “% Telomerase Activity ± SD” value (telomerase; 250 ng/ML) of the same compound?
A: 46.28 ± 2.02%

Q: What about the “% Telomerase Activity ± SD” value (telomerase; 500 ng/ML) of the same compound?
A: 54.38 ± 2.78%

Q: And the “% Telomerase Activity ± SD” value (telomerase; 10000 ng/ML, placebo (1% DMSO) = 100%)?
A: 74.0 ± 10.45%

Q: What about the “telomerase activity compared with negative control” value (telomerase; 3.8-62.5 ng/ml) of the same compound?
A: higher telomerase activity than negative control

Q: What about the “telomerase activity, times higher than the negative control” value (telomerase; 62.5-31.25 ng/ml) of the same compound?
A: 7-10 times

Q: And the “telomerase activity compared with negative control” value (telomerase; 125-1000 ng/ml)?
A: lower than negative control

Q: What about the “concentration giving the highest activity of telomerase” value (telomerase; HCEC-B4G12) of the same compound?
A: 62.5 ng/mL

Q: And the “histopathological finding, corneal endothelium” value (from here on “histopathological finding”) (corneal endothelium; Group B, 25 ng/ml, compared to group A)?
A: cell losses were observed in very few areas

Q: What about the “histopathological finding” value (corneal endothelium; Group C, 100 ng/ml) of the same compound?
A: configuration and number of cells were found to be close to Group NC

Q: What about the “histopathological finding” value (corneal endothelium; Group D, 500 ng/ml, compared to Group B and Group C) of the same compound?
A: more hypertrophic and place cell losses

Q: What about the “2am Percentile Length” value ([2]; GROUP B, 25 ng/ml) of the same compound?
A: 6,968 Base Pairs

Q: What about the “Median Length” value ([2]; GROUP B, 25 ng/ml) of the same compound?
A: 11,431 Base Pairs

Q: And the “Telomeres <3 Kbp” value ([2]; GROUP B, 25 ng/ml)?
A: 3.7%

Q: And the “2am Percentile Length” value ([2]; GROUP C, 100 ng/ml)?
A: 7,374 Base Pairs

Q: What about the “Median Length” value ([2]; GROUP C, 100 ng/ml) of the same compound?
A: 11,543 Base Pairs

Q: What about the “Telomeres <3 Kbp” value ([2]; GROUP C, 100 ng/ml) of the same compound?
A: 3.1%

Q: And the “2am Percentile Length” value ([2]; GROUP D, 500 ng/ml)?
A: 7,113 Base Pairs

Q: What about the “Median Length” value ([2]; GROUP D, 500 ng/ml) of the same compound?
A: 11,552 Base Pairs

Q: What about the “Telomeres <3 Kbp” value ([2]; GROUP D, 500 ng/ml) of the same compound?
A: 3.6%

Q: What about the “concentration in eye tissues” value [3] of the same compound?
A: below 1 ng
